Measurements published in publication PMC3266168 (Journal of Medicinal Chemistry, 2011).
In brackets after ≈: the same amount, converted by molar mass.

Assays:
F. tularensis FabI = F. tularensis FabI (Francisella tularensis subsp. tularensis, UniProt Q5NGQ3); type: biochemical
F. tularensis = test: microbe, parasite or virus in culture; type: cell-based; conditions: Francisella tularensis
[1] = test system: E.coli TolC mutant (BW251113-TolC-); type: cell-based
E.coli (BW251113) = type: cell-based

Chain of F. tularensis FabI (Q5NGQ3 1-260): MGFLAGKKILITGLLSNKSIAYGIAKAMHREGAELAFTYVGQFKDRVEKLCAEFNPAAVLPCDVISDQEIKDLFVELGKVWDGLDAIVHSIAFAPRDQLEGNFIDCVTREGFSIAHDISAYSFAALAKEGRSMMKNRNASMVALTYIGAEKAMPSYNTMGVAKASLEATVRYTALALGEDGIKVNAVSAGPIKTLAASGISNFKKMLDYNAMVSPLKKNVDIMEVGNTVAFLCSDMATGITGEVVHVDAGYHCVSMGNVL

Row | Structure (SMILES) | L.E. (Ligand Efficiency) (F. tularensis FabI) | MIC (F. tularensis) [mg/L] | fold increase in activity (IC50) over hit compound 2 (F. tularensis FabI) [fold] | MIC [1] | MIC (E.coli (BW251113))
1 | Nc1ncc(Cc2ccc(Cl)cc2)s1 [Compound 1] | 0.41 | – | – | – | –
2 | Clc1ccc(Cn2cnc3ccccc32)cc1 [Compound 2, 1-(4-chlorobenzyl) benzimidazole] | 0.37 | – | – | – | –
3 | Clc1ccc(Cn2cnc3ccccc32)cc1Cl [Compound 6] | – | 15.6 (≈ 56.3 µM) | ~10 | – | –
4 | Cc1cc2ncn(Cc3ccc(Cl)c(Cl)c3)c2cc1C [Compound 9] | – | – | 100 | 6.25 (3) μg/mL | >200 (3) μg/mL
